# Measurements from ChEMBL document CHEMBL1949665, “Pyrazolo[1,5-a]pyridines as p38 kinase inhibitors” (Org Lett, 2005).
# Assay: Inhibition of p38 kinase
row,Structure (SMILES),IC50 [µM]
1,CCCCNc1nccc(-c2c(-c3ccc(F)cc3)nn3c(OCCF)cccc23)n1,0.04
2,Fc1ccc(-c2nn3ccccc3c2-c2ccncn2)cc1,0.63
3,N#Cc1ccc2c(-c3ccnc(NC4CC4)c3)c(-c3ccc(F)cc3)nn2c1,0.05
4,OCCCNc1nccc(-c2c(-c3ccc(F)cc3)nn3cc(C(F)(F)F)ccc23)n1,0.06
5,Nc1nccc(-c2c(-c3ccc(F)cc3)nn3ccccc23)n1,0.1
6,CN(C)CCCNc1nccc(-c2c(-c3ccc(F)cc3)nn3cc(C(F)(F)F)ccc23)n1,0.63
7,CN1CCN(CCCNc2nccc(-c3c(-c4ccc(F)cc4)nn4cc(C(N)=O)ccc34)n2)CC1,0.04
8,NC(=O)c1ccc2c(-c3ccnc(NCCCO)n3)c(-c3ccc(F)cc3)nn2c1 [GW581744X],0.01
9,CSc1cccc2c(-c3ccncn3)c(-c3ccc(F)cc3)nn12,0.16
10,Cc1cccc2c(-c3ccncn3)c(-c3ccc(F)cc3)nn12,0.5
11,OCCCNc1nccc(-c2c(-c3cccc(C(F)(F)F)c3)nn3cc(C(F)(F)F)ccc23)n1,0.2
12,NC(=O)c1ccc2c(-c3ccnc(NC4CC4)n3)c(-c3ccc(F)cc3)nn2c1,0.02
13,CCCCNc1cc(-c2c(-c3ccc(F)cc3)nn3c(OC)cccc23)ccn1,0.06
14,CN(C)C(=O)c1ccc2c(-c3ccnc(NC4CC4)n3)c(-c3cccc(C(F)(F)F)c3)nn2c1,0.06
15,CN(C)CCCNc1nccc(-c2c(-c3ccc(C(F)(F)F)cc3)nn3cc(C(F)(F)F)ccc23)n1,1.25
16,CN(C)C(=O)c1ccc2c(-c3ccnc(NC4CC4)n3)c(-c3ccc(F)cc3)nn2c1,0.06
17,N#Cc1ccc2c(-c3ccnc(NC4CC4)n3)c(-c3ccc(F)cc3)nn2c1 [GW561436X],0.03
18,CCCCNc1cc(-c2c(-c3ccc(F)cc3)nn3cccc(F)c23)ccn1,0.16
19,Fc1ccc(-c2nn3ccccc3c2-c2ccnc(NCc3ccccc3)c2)cc1,0.16
20,CC(C)Nc1cc(-c2c(-c3ccc(F)cc3)nn3cc(C(N)=O)ccc23)ccn1,0.08
21,CN1CCN(CCCNc2nccc(-c3c(-c4ccc(C(F)(F)F)cc4)nn4cc(C(F)(F)F)ccc34)n2)CC1,0.4
22,COc1cccc2c(-c3ccncc3)c(-c3ccc(F)cc3)nn12,0.1
23,CC(C)Nc1nccc(-c2c(-c3ccc(F)cc3)nn3cc(C(F)(F)F)ccc23)n1,0.04
24,Nc1cc(-c2c(-c3ccc(F)cc3)nn3cc(C(F)(F)F)ccc23)ccn1,0.1
25,CN(C)c1cc(-c2c(-c3ccc(F)cc3)nn3ccccc23)ccn1,1
26,OCCCNc1nccc(-c2c(-c3ccc(F)cc3)nn3cc(Cl)ccc23)n1,0.04
27,CN1CCN(CCCNc2nccc(-c3c(-c4ccc(F)cc4)nn4cc(C(F)(F)F)ccc34)n2)CC1,0.13
28,Nc1nccc(-c2c(-c3ccc(F)cc3)nn3cc(C(F)(F)F)ccc23)n1 [GW568326X],0.2
29,CN(C)CCCNc1nccc(-c2c(-c3cccc(Cl)c3)nn3cc(C(F)(F)F)ccc23)n1,0.1
30,Fc1ccc(-c2nn3ccccc3c2-c2ccnc(Nc3ccccc3)c2)cc1,0.16
